Assay results as given in patent US9133158B2, “Bicyclic dihydroisoquinoline-1-one derivatives” (Hoffmann-La Roche Inc., priority 2011, dated 2015).

Legend:
[1] = target: T1, human CYP11B2 (Homo sapiens, UniProt P19099); assay: G-402 cellular enzyme assay, human CYP11B2 (aldosterone release, HTRF); assay type: cell-based; details: G-402 cells, 1 μM Deoxycorticosterone
T1 construct: expressed in transfected cells
T1 sequence (P19099 25-503): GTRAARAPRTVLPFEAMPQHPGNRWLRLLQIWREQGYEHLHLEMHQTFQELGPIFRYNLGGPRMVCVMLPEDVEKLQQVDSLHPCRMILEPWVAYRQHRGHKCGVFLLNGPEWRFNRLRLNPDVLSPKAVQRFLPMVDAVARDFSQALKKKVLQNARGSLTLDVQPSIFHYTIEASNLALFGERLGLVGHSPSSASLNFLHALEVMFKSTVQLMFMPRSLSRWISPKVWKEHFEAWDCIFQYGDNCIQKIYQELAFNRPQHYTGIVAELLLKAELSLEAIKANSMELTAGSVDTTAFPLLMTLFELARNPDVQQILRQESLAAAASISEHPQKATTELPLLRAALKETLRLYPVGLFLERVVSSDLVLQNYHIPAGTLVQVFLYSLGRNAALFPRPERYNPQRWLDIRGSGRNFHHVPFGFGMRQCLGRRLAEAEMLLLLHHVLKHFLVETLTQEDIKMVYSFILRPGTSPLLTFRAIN
Outline: (§1)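 Inhibition of steroid release was taken as enzyme inhibition. CYP11B1 assays used 1 μM deoxycortisol with cortisol detection, CYP11B2 assays 1 μM deoxycorticosterone with aldosterone detection, both by HTRF after 16 h in stable G-402 cells; EC50 from least-squares MMF fit.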

[2] = target: T2, human CYP11B1 (Homo sapiens, UniProt P15538); assay: G-402 cellular enzyme assay, human CYP11B1 (cortisol release, HTRF); assay type: cell-based; details: G-402 cells, 1 μM Deoxycortisol
T2 construct: expressed in transfected cells
T2 sequence (P15538 25-503): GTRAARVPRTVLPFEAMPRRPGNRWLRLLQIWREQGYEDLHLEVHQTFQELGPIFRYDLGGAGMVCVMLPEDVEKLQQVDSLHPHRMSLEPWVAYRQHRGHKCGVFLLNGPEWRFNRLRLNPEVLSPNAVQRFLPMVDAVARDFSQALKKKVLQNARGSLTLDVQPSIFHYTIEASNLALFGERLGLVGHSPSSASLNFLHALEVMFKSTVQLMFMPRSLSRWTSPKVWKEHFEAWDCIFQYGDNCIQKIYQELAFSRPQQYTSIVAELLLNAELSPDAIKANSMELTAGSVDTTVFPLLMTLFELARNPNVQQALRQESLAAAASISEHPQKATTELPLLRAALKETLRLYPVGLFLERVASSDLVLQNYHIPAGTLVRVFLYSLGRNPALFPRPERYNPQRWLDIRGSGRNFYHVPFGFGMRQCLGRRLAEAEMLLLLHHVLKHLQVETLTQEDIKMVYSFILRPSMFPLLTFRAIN
Outline: as §1

Structure (SMILES)	EC50 [1]	EC50 [2]
O=C1c2ccc(Cl)cc2CCN1c1cncc(CN2CCCCS2(=O)=O)c1 [Example 81, 6-Chloro-2-[5-(1,1-dioxo-1λ^6-[1,2]thiazinan-2-ylmethyl)-pyridin-3-yl]-3,4-dihydro-2H-isoquinolin-1-one]	178 nM	2360 nM
CC(=O)N[C@H]1CCCc2c1cncc2N1C(=O)c2ccc(Cl)cc2[C@@H]1C (single isomer, unassigned) [Example 365, N-[(S or R)-4-((S or R)-5-Chloro-3-methyl-1-oxo-1,3-dihydro-isoindol-2-yl)-5,6,7,8-tetrahydro-isoquinolin-8-yl]-acetamide]	337 nM	15900 nM
O=C1c2ccc(Cl)cc2CCN1c1cncc(Cc2cc(Cl)ccc2Cl)c1 [Example 217, 6-Chloro-2-[5-(2,5-dichloro-benzyl)-pyridin-3-yl]-3,4-dihydro-2H-isoquinolin-1-one]	92 nM	803 nM
CC(NS(C)(=O)=O)c1cncc(N2CCc3cc(Cl)ccc3C2=O)c1 (centres unmarked) [Example 276, N-{1-[5-(6-Chloro-1-oxo-3,4-dihydro-1H-isoquinolin-2-yl)-pyridin-3-yl]-ethyl}-methanesulfonamide]	284 nM	2030 nM
Cn1cnc(CNc2cncc(N3CCc4cc(Cl)ccc4C3=O)c2)c1 [Example 228, 6-Chloro-2-{5-[(1-methyl-1H-imidazol-4-ylmethyl)-amino]-pyridin-3-yl}-3,4-dihydro-2H-isoquinolin-1-one]	263 nM	12400 nM
CCC(=O)NC1CCCc2c1cncc2N1CCc2cc(Cl)ccc2C1=O (single isomer, unassigned) [Example 329, N-((S or R)-6-Chloro-1-oxo-3,4,5′,6′,7′,8′-hexahydro-1H-[2,4′]biisoquinolinyl-8′-yl)-propionamide]	6020 nM	12000 nM
CN1CCCC1CCOCc1cncc(N2CCc3cc(Cl)ccc3C2=O)c1 (centres unmarked) [Example 196, 6-Chloro-2-{5-[2-(1-methyl-pyrrolidin-2-yl)-ethoxymethyl]-pyridin-3-yl}-3,4-dihydro-2H-isoquinolin-1-one]	178 nM	1030 nM
CC1(C)c2cc(Cl)ccc2C(=O)N1c1cncc(CO)c1 [Example 133, 5-Chloro-2-(5-hydroxymethyl-pyridin-3-yl)-3,3-dimethyl-2,3-dihydro-isoindol-1-one]	98.6 nM	1370 nM
Nc1cccc2c(N3CCc4cc(Cl)ccc4C3=O)cncc12 [Example 288, 8′-Amino-6-chloro-3,4-dihydro-[2,4′]biisoquinolinyl-1-one]	539 nM	8870 nM
CCS(=O)(=O)Nc1cncc(N2CCc3cc(Cl)ccc3C2=O)c1 [Example 218, Ethanesulfonic acid [5-(6-chloro-1-oxo-3,4-dihydro-1H-isoquinolin-2-yl)-pyridin-3-yl]-amide]	1550 nM	14300 nM
O=C1c2ccc(Cl)cc2CN1c1cncc(Cn2cncn2)c1 [Example 110, 5-Chloro-2-(5-[1,2,4]triazol-1-ylmethyl-pyridin-3-yl)-2,3-dihydro-isoindol-1-one]	184 nM	1280 nM
Cc1cncc(N2CCc3cc(Cl)ccc3C2=O)n1 [Example 38, 6-Chloro-2-(6-methyl-pyrazin-2-yl)-3,4-dihydro-2H-isoquinolin-1-one]	1070 nM	8390 nM
O=C1c2ccc(Cl)cc2CCN1c1cncc(N2CCC[C@H]2CO)c1 [Example 135, 6-Chloro-2-[5-((S)-2-hydroxymethyl-pyrrolidin-1-yl)-pyridin-3-yl]-3,4-dihydro-2H-isoquinolin-1-one]	93.1 nM	523 nM

These reach a lower EC50 [1]. Values come first.

EC50 [1]	EC50 [2]	Structure (SMILES)
8.1 nM	135 nM	CSc1cncc(N2CCc3cc(Cl)ccc3C2=O)c1 [Example 59, 6-Chloro-2-(5-methylsulfanyl-pyridin-3-yl)-3,4-dihydro-2H-isoquinolin-1-one]
4.3 nM	57.7 nM	CCC1c2cc(Cl)ccc2C(=O)N1c1cncc(-c2ccnn2C)c1 (single isomer, unassigned) [Example 429, (S or R)-5-Chloro-3-ethyl-2-[5-(2-methyl-2H-pyrazol-3-yl)-pyridin-3-yl]-2,3-dihydro-isoindol-1-one]
45.8 nM	533 nM	COc1cncc(N2CCc3nc(Cl)ccc3C2=O)c1 [Example 96, 2-Chloro-6-(5-methoxy-pyridin-3-yl)-7,8-dihydro-6H-[1,6]naphthyridin-5-one]
70.6 nM	186 nM	CCS(=O)(=O)Nc1cccc2c(N3CCc4cc(Cl)ccc4C3=O)cncc12 [Example 289, Ethanesulfonic acid (6-chloro-1-oxo-3,4-dihydro-1H-[2,4′]biisoquinolinyl-8′-yl)-amide]
48.8 nM	849 nM	COc1ccc2c(n1)C(C)(C)N(c1cncc(OC(F)F)c1)C2=O [Example 295, 6-(5-Difluoromethoxy-pyridin-3-yl)-2-methoxy-7,7-dimethyl-6,7-dihydro-pyrrolo[3,4-b] pyridin-5-one]
86 nM	4610 nM	O=C1c2ccc(Cl)cc2CCN1c1cccnc1 [Example 1, 6-Chloro-2-pyridin-3-yl-3,4-dihydro-2H-isoquinolin-1-one]
27.5 nM	306 nM	O=C1c2ccc(Cl)cc2CCN1c1cncc(Cn2ncc3ccccc32)c1 [Example 182, 6-Chloro-2-(5-indazol-1-ylmethyl-pyridin-3-yl)-3,4-dihydro-2H-isoquinolin-1-one]
46.8 nM	514 nM	O=C1c2ccc(Cl)cc2CCN1c1cncc(C(O)c2cc(F)cc(F)c2)c1 (centres unmarked) [Example 32, 6-Chloro-2-{5-[(3,5-difluoro-phenyl)-hydroxy-methyl]-pyridin-3-yl}-3,4-dihydro-2H-isoquinolin-1-one]
37.9 nM	3560 nM	CCC1c2cc(Cl)ccc2C(=O)N1c1cncc(F)c1 (centres unmarked) [Example 126, 5-Chloro-3-ethyl-2-(5-fluoro-pyridin-3-yl)-2,3-dihydro-isoindol-1-one]
16.9 nM	220 nM	COc1cncc(N2CCc3nc(OC)ccc3C2=O)c1 [Example 97, 2-Methoxy-6-(5-methoxy-pyridin-3-yl)-7,8-dihydro-6H-[1,6]naphthyridin-5-one]
49.6 nM	188 nM	COC[C@@H]1CCCN1c1cncc(N2CCc3cc(Cl)ccc3C2=O)c1 [Example 49, 6-Chloro-2-[5-((S)-2-methoxymethyl-pyrrolidin-1-yl)-pyridin-3-yl]-3,4-dihydro-2H-isoquinolin-1-one]
40.8 nM	900 nM	Cc1noc(C)c1Cc1cncc(N2CCc3cc(Cl)ccc3C2=O)c1 [Example 204, 6-Chloro-2-[5-(3,5-dimethyl-isoxazol-4-ylmethyl)-pyridin-3-yl]-3,4-dihydro-2H-isoquinolin-1-one]
27.4 nM	281 nM	Cc1cn[nH]c1-c1cncc(N2CCc3cc(Cl)ccc3C2=O)c1 [Example 420, 6-Chloro-2-[5-(4-methyl-2H-pyrazol-3-yl)-pyridin-3-yl]-3,4-dihydro-2H-isoquinolin-1-one]
17.2 nM	88.9 nM	O=C1c2ccc(Cl)cc2CCN1c1cncc(CN2CC3(COC3)C2)c1 [Example 171, 6-Chloro-2-[5-(2-oxa-6-aza-spiro[3.3]hept-6-ylmethyl)-pyridin-3-yl]-3,4-dihydro-2H-isoquinolin-1-one]
8 nM	679 nM	CCS(=O)(=O)N(C)Cc1cncc(N2C(=O)c3ccc(Cl)cc3C2(C)C)c1 [Example 395, Ethanesulfonic acid [5-(6-chloro-1,1-dimethyl-3-oxo-1,3-dihydro-isoindol-2-yl)-pyridin-3-ylmethyl]-methyl-amide]
24.8 nM	251 nM	CC(c1cncc(N2CCc3cc(Cl)ccc3C2=O)c1)n1cccn1 (centres unmarked) [Example 271, 6-Chloro-2-[5-(1-pyrazol-1-yl-ethyl)-pyridin-3-yl]-3,4-dihydro-2H-isoquinolin-1-one]
6.7 nM	157 nM	O=C1c2ccc(Cl)cc2CCN1c1cncc(OC2CC2)c1 [Example 68, 6-Chloro-2-(5-cyclopropoxy-pyridin-3-yl)-3,4-dihydro-2H-isoquinolin-1-one]
68.2 nM	913 nM	C[C@H](O)c1cncc(N2CCc3cc(Cl)ccc3C2=O)c1 [Example 15, 6-Chloro-2-[5-((S)-1-hydroxy-ethyl)-pyridin-3-yl]-3,4-dihydro-2H-isoquinolin-1-one]
